Measured values published in article PMC12505902, “Inhibitors of trehalose-6-phosphate synthase activity in fungal pathogens compromise thermal tolerance pathways” (mBio, 2025).

Tested on: C. auris (B11220)
Test: MIC dose-response assay in YPD
Format: cell-based
Settings: Candidozyma auris
Method: We tested the effects of 4456dh on live cells by determining the minimal inhibitory concentration causing 80% growth reduction (MIC80). Wild-type (WT) C. albicans and C. auris cells were incubated with 4456dh in yeast-peptone-dextrose (YPD) medium at 42°C and 39°C, respectively (Fig. 4A). […] 4456dh inhibited the growth of C. auris with an MIC80 of 7 mM at 39°C (Fig. 4A). The MIC80 increased at 30°C to greater than 13 mM (Fig. S7A).
Fig 4 4456dh inhibits the growth of Candida and Cryptococcus species. Two-fold dose response assays were performed against (A) C. albicans at 42°C and C. auris at 39°C, (B) C. glabrata at 42°C, and (C) C. neoformans, C. deneoformans, and C. gattii at 37°C. 4456dh was administered at the concentrations indicated. Cultures were grown in YPD at the listed temperatures for 48 hours for Candida species and 72 hours for Cryptococcus species. Experimental temperatures reflect the temperatures at which the fungi experience heat stress. Left: relative growth of treated samples was calculated by averaging technical triplicates and normalizing the OD600 of each treated well to the average OD600 of the untreated WT controls, after the absorbance due to the compound was subtracted. The MIC80 values, calculated based on the OD600 values, are indicated in the white text on each heat map. […]
102 determined by identifying the inflection point of the derivative data. […]
104 The catalytic activity of C. albicans Tps1 and C. neoformans Tps1 was measured via a continuous […]
110 bottomed 96-well microtiter plates and the decrease in absorbance at 340 nm during the initial
111 reaction rate was recorded using a plate reader (Tecan). The decrease in absorbance was
112 analyzed for the first 200s of the kinetic reaction. […]
116 the overnight cultures was quantified by measuring the OD600 and corrected for the background
117 absorbance of the medium. Antifungal potency for 4456dh was assessed by minimum inhibitory […]
124 technical replicates. Growth, as determined by a reading of absorbance at 600 nm, was
125 normalized to untreated controls and was corrected for the absorbance of 4456dh in the YPD […]

Structure (SMILES): Cn1cc(-c2csc(NC(=O)Cc3ccccn3)n2)cn1 [Compound 4456dh]
- MIC80 (30°C, YPD): > 13 mM
- MIC80 (39°C, YPD, 48 hours): 7 mM
- MIC80 (Supplemental Table 5, This publication): 2780 µg/mL
